What was measured:
[1] = tested on: Htt exon1-Q25-egfp; test: Fluorescence microscopy of transfected PC12 cells expressing Htt exon1-Q25-egfp; assay type: cell-based; details: CQ 4 μM, 48 hours post-transfection
Text: (§1) PolyQ-htt-GFP fusion constructs, in which the polyglutamine region is encoded by CAA and CAG-containing tandem repeats ([…]) [SEQ ID NO: 1], human polyglutaminen, were obtained from the Hereditary Disease Foundation, Santa Monica, Calif., USA. PC12 and HEK293 cells were maintained in MEM supplemented with 10% v/v FBS, switched to Opti-MEM without serum for 6 hrs during transfection using Lipofectamine 2000 (Invitrogen, Carlsbad, Calif., USA), and returned to serum-containing medium thereafter (up to 48 hours). […] Control cultures received equivalent amounts of DMSO-containing vehicle (<0.1% w/v DMSO, final concentration).
Concordant with this reduction in mutant protein expression, cell survival was improved by CQ in a dose dependent fashion with a half maximal effect at 1-2 μM (FIG. 2b). Cell death began to increase at 8 μM, likely due to dose-dependent toxic effects of CQ.

[2] = tested on: R6/2 mice; test: Rotarod performance in R6/2 mice; assay type: in vivo, mouse; details: between ninth and eleventh weeks of age, oral CQ 30 mg/kg/day
Description: A colony of transgenic mice strain R6/2 that is heterozygous for htt exon1 (containing 145 CAG repeats) was maintained, with founders originating and available from The Jackson Laboratory (Bar Harbor, Me., USA). Male transgenic R6/2 mice were bred with background strain (B6CBAFI/J) females. Genotyping was done according to Hockly et al, Brain Res Bull 61, 469-479, 2003. CQ in water was orally administered to mice at 30 mg/kg/day starting at 3 weeks of age and continued until the mice were deceased or sacrificed for tissues. Littermate R6/2 mice were gavaged with water vehicle alone. […] Blood glucose levels were determined after at least 8 hrs of fasting in 11-week old mice (n=6 for wild-type, n=4 for vehicle-treated R6/2, n=6 for CQ-treated R6/2 littermates) using a 2300 STAT Plus glucose analyzer (YSI, Yellowsonte, Ohio, USA). Fasting blood insulin levels in animals fasted for 8 hrs were measured using an Ultra Sensitive Rat Insulin ELISA Kit (Crystal Chem, Inc., Downers Grove, Ill., USA) according to manufacturer's instructions.
Rotarod performance (n≧6 for each treatment group) was assessed as described by Hockly et al., 2003 Supra with the modification that the SDI Rota-Rod (San Diego Instruments, San Diego, Calif.) was set to linearly increase in speed to 40 rpm in 4 min ramp time. […]

[3] = tested on: Htt exon1-Q103-egfp; test: Western blotting of cell extracts, Htt exon1-Q103-egfp expression; assay type: cell-based
Text: as §1
HEK293 or PC12 cells were lysed in PBS buffer containing 1% v/v Triton X-100 and protease inhibitor cocktail (Roche, Indianapolis, Ind.), and passed through a 28 gauge needle to ensure the release of Htt inclusions from the nuclei. Whole mouse brains were homogenized in 50 mM Tris-HCl (pH 7.4), 150 mM NaCl, 1% v/v Triton X-100 and complete protease inhibitor cocktail. Brain homogenate was pre-cleared by centrifuging at 7,500 g for 90 s at 4° C. The supernatant was passed through a 28-gauge needle and boiled in SDS sample buffer for 10 min. Fifty μg of total protein was loaded onto 10% w/v SDS gel containing a 4% w/v stacking gel. […]

[4] = tested on: Htt exon1-Q103-egfp; test: Proteasome inhibitor MG132 treatment of CQ-treated Htt exon1-Q103-egfp-expressing HEK293 cells; assay type: cell-based; details: pan-proteasome inhibitor MG132
Description: HEK293 or PC12 cells were lysed in PBS buffer containing 1% v/v Triton X-100 and protease inhibitor cocktail (Roche, Indianapolis, Ind.), and passed through a 28 gauge needle to ensure the release of Htt inclusions from the nuclei. Whole mouse brains were homogenized in 50 mM Tris-HCl (pH 7.4), 150 mM NaCl, 1% v/v Triton X-100 and complete protease inhibitor cocktail. Brain homogenate was pre-cleared by centrifuging at 7,500 g for 90 s at 4° C. The supernatant was passed through a 28-gauge needle and boiled in SDS sample buffer for 10 min. Fifty μg of total protein was loaded onto 10% w/v SDS gel containing a 4% w/v stacking gel. Monoclonal antibodies anti-polyglutamine (1:2,000), anti-GAPDH (1:10,000), anti-GFP (1:4,000), and anti-Htt (EM48) in 1:1000 dilution were used for immunoblotting. All western blot experiments were performed at least three times and band intensities were averaged.
In examining potential mechanisms for the effects of CQ on Htt accumulation, we considered the possibilities that CQ might act to inhibit Htt aggregation or directly influence Htt synthesis or degradation. […] Therefore, we focused on the aspects of Htt synthesis and turnover. To determine whether CQ might down-regulate polyQ-Htt expression at the transcriptional level, we examined the amount of Htt^exon1-Q103-egfp mRNA present after 48 hrs of transfection by Northern analysis. […]

[5] = tested on: R6/2 mice; test: Body weight of R6/2 mice; assay type: in vivo, mouse; details: 10th and 11th weeks, oral CQ 30 mg/kg/day
Description: A colony of transgenic mice strain R6/2 that is heterozygous for htt exon1 (containing 145 CAG repeats) was maintained, with founders originating and available from The Jackson Laboratory (Bar Harbor, Me., USA). Male transgenic R6/2 mice were bred with background strain (B6CBAFI/J) females. Genotyping was done according to Hockly et al, Brain Res Bull 61, 469-479, 2003. CQ in water was orally administered to mice at 30 mg/kg/day starting at 3 weeks of age and continued until the mice were deceased or sacrificed for tissues. Littermate R6/2 mice were gavaged with water vehicle alone. At the end of CQ treatment mice were anesthetized and transcardially perfused with PBS followed by 4% v/v paraformaldehyde. Blood glucose levels were determined after at least 8 hrs of fasting in 11-week old mice (n=6 for wild-type, n=4 for vehicle-treated R6/2, n=6 for CQ-treated R6/2 littermates) using a 2300 STAT Plus glucose analyzer (YSI, Yellowsonte, Ohio, USA). Fasting blood insulin levels in animals fasted for 8 hrs were measured using an Ultra Sensitive Rat Insulin ELISA Kit (Crystal Chem, Inc., Downers Grove, Ill., USA) according to manufacturer's instructions. […]

[6] = tested on: R6/2 mice; test: Lateral ventricle area (striatal atrophy) in R6/2 mice; assay type: in vivo, mouse; details: 11-week old, oral CQ 30 mg/kg/day, versus sham treatment group
Description: A colony of transgenic mice strain R6/2 that is heterozygous for htt exon1 (containing 145 CAG repeats) was maintained, with founders originating and available from The Jackson Laboratory (Bar Harbor, Me., USA). Male transgenic R6/2 mice were bred with background strain (B6CBAFI/J) females. Genotyping was done according to Hockly et al, Brain Res Bull 61, 469-479, 2003. CQ in water was orally administered to mice at 30 mg/kg/day starting at 3 weeks of age and continued until the mice were deceased or sacrificed for tissues. Littermate R6/2 mice were gavaged with water vehicle alone. At the end of CQ treatment mice were anesthetized and transcardially perfused with PBS followed by 4% v/v paraformaldehyde. Blood glucose levels were determined after at least 8 hrs of fasting in 11-week old mice (n=6 for wild-type, n=4 for vehicle-treated R6/2, n=6 for CQ-treated R6/2 littermates) using a 2300 STAT Plus glucose analyzer (YSI, Yellowsonte, Ohio, USA). Fasting blood insulin levels in animals fasted for 8 hrs were measured using an Ultra Sensitive Rat Insulin ELISA Kit (Crystal Chem, Inc., Downers Grove, Ill., USA) according to manufacturer's instructions.
Plasma membrane integrity was evaluated using propidium iodide at 20 μg/ml final concentration. Approximately 200 cells transfected with the Htt^exon1-Q103-egf plasmid were counted for each treatment group 48 hr after transfection. […]

## Oc1c(I)cc(Cl)c2cccnc12 [CQ, 5-chloro-7-iodo-8-hydroxy-quinoline]
[1]
  fluorescent product of Htt exon1-Q25-egfp: unaffected
[2]
  rotarod performance: scored significantly better
[3]
  CQ concentration at which dose-dependent inhibition of Htt exon1-Q103-egfp expression begins: 0.5 µM
[3]; 2 μM CQ
  inhibition of Htt exon1-Q103-egfp expression: 3.2 fold
[4]
  suppression of exon1-Q103-egfp protein production by CQ under MG132 treatment: not affected
[5]
  body weight: significantly greater than untreated animals
[6]
  reduction of lateral ventricle area: 55%
